Three compounds from US20140309172A1, “ICE INHIBITING COMPOUNDS AND USES THEREOF” (priority 2010, published 2014) can be followed below.

Series [1] is described as follows: Preliminary tests of blood-brain barrier penetration in animals. In kind it is in vivo.
Series [2] deals with M17 cells overexpressing alpha-synuclein. Nature of the series: Cell viability of M17 cells overexpressing alpha-synuclein (LIVE/DEAD assay). In kind it is cell-based, human. From the text: Humans have 28 calpain and caspase isozymes—a large but not impossible number to test. RNAi was used to knock down each of these in turn in a neuronal cell culture model of PD. It is a neuroblastoma cell line (BE(2)-M17) carrying a wild-type α-synuclein overexpressing vector. BE(2)-M17 is a clone of the SK-N-BE(2) cell line that was established in November of 1972 from a bone marrow biopsy taken from a child with neuroblastoma. Synuclein on its own is not toxic to these cells, but it is toxic when combined with an oxidative stress agent such as rotenone or menadione. Greater than 90% reduction of mRNA levels for each of the 29 protease genes was routinely achieved, and greater than 50% reduction in protein levels (typically, about 70% reduction) was routinely achieved.
A cell viability assay was performed using LIVE/DEAD (molecular probes) assay according to the manufacture instructions. As summarized in FIG. 10, both RNAi knockdown of caspase-1/ICE and treatment with the caspase-1/ICE inhibitor block synuclein fragment formation in nerve cells and should inhibit synuclein aggregation in neuronal cells derived from one or more mouse models of PD.

In series [3] the test system is M17 cells carrying empty pcDNA3 vector. Nature of the series: Cell viability of M17 cells with pcDNA3 empty vector in the presence of menadione. It is filed as cell-based, human. The note with it: low concentrations of menadione, FIG. 8.

SMILES strings stand for the structures.

Take `CC(C)(C)[C@H](NC(=O)c1ccc(N)c(Cl)c1)C(=O)N1CCC[C@H]1C(=O)N[C@H](C#N)CC(=O)O` [NCGC00185682]: the BBB penetration result in series [1] is “low”.
With `CCO[C@@H]1OC(=O)C[C@@H]1NC(=O)[C@@H]1CCCN1C(=O)[C@@H](NC(=O)c1ccc(N)c(Cl)c1)C(C)(C)C` [VX-765], in series [2] (M17 cells overexpressing alpha-synuclein, FIG. 10), the “rescue from alpha-synuclein-induced toxicity (cell viability)” value was “rescued”. Further, in series [1], the BBB penetration result is given as “low”.
Turning to `CC1=CC(=O)c2ccccc2C1=O` [menadione], the “toxicity to M17 cells overexpressing a-synuclein” value in series [2] (low concentrations of menadione, FIG. 8) is reported as “toxic”. For the same compound, the “toxicity to M17 cells carrying empty pcDNA3 vector” value in series [3] is given as “not toxic”.
